Test results: ChEMBL document CHEMBL3885881, “DrugMatrix”

Organism: Rattus norvegicus
Assay: DrugMatrix - Regimen: Daily Repeat
Type: toxicity, organism-based, Sprague-Dawley
Design: regimen Daily Repeat, gender Male, age 6-8 weeks
Conditions: in vivo, po, route oral GAVAGE, vehicle 100 % WATER; for BASOPHIL / EOSINOPHIL / ERYTHROCYTE COUNT / HEMATOCRIT / HEMOGLOBIN / LEUKOCYTE COUNT / LYMPHOCYTE / MEAN CORPUSCULAR HEMOGLOBIN / MEAN CORPUSCULAR HEMOGLOBIN CONCENTRATION / MEAN CORPUSCULAR VOLUME / MONOCYTE / NEUTROPHIL / PLATELET COUNT / ABSOLUTE BASOPHIL / ABSOLUTE EOSINOPHIL / ABSOLUTE LYMPHOCYTE / ABSOLUTE MONOCYTE / ABSOLUTE SEGMENTED NEUTROPHIL / NUCLEATED RED BLOOD CELLS: tissue Blood; for ALANINE AMINOTRANSFERASE / ALBUMIN / ALKALINE PHOSPHATASE / ASPARTATE AMINOTRANSFERASE / BLOOD UREA NITROGEN / CHLORIDE / CHOLESTEROL / CREATINE PHOSPHOKINASE / CREATININE / GLUCOSE / PHOSPHORUS / POTASSIUM / SODIUM / TOTAL BILIRUBIN / TOTAL PROTEIN / CARBON DIOXIDE / LACTATE DEHYDROGENASE / LIPASE / URIC ACID: tissue Plasma
[1] = 0 mg/kg, 72 h, dose level Control, time 3 day
[2] = 0 mg/kg, 120 h, dose level Control, time 5 day
[3] = 45 mg/kg, 72 h, dose level Low, time 3 day
[4] = 45 mg/kg, 120 h, dose level Low, time 5 day

## Nc1ccc(S(=O)(=O)Nc2ncccn2)cc1 [SULFADIAZINE]
[1]
  BASOPHIL: 0%
  EOSINOPHIL: 0.5%
  ERYTHROCYTE COUNT: 5.8 x10E6/uL
  HEMATOCRIT: 35.07%
  HEMOGLOBIN: 14.12 G/DL
  LEUKOCYTE COUNT: 13.7 x10E3/uL
  LYMPHOCYTE: 82.33%
  MEAN CORPUSCULAR HEMOGLOBIN: 24.38 pg
  MEAN CORPUSCULAR HEMOGLOBIN CONCENTRATION: 40.28 G/DL
  MEAN CORPUSCULAR VOLUME: 60.52 fL
  MONOCYTE: 2.67%
  NEUTROPHIL: 14.5%
  PLATELET COUNT: 911.5 x10E3/uL
  ALANINE AMINOTRANSFERASE: 36.83 u/L
  ALBUMIN: 3.75 G/DL
  ALKALINE PHOSPHATASE: 399.83 u/L
  ASPARTATE AMINOTRANSFERASE: 66 u/L
  BLOOD UREA NITROGEN: 14.67 mg/dL
  CHLORIDE: 101.67 MEQ/L
  CHOLESTEROL: 66.33 mg/dL
  CREATINE PHOSPHOKINASE: 139.5 u/L
  CREATININE: 0.92 mg/dL
  GLUCOSE: 175 mg/dL
  PHOSPHORUS: 11.42 mg/dL
  POTASSIUM: 7.03 MEQ/L
  SODIUM: 148.5 MEQ/L
  TOTAL BILIRUBIN: 1.13 mg/dL
  TOTAL PROTEIN: 6.87 G/DL
[2]
  BASOPHIL: 0%
  EOSINOPHIL: 0.2%
  ERYTHROCYTE COUNT: 6.02 x10E6/uL
  HEMATOCRIT: 36.48%
  HEMOGLOBIN: 14.38 G/DL
  LEUKOCYTE COUNT: 12.34 x10E3/uL
  LYMPHOCYTE: 83%
  MEAN CORPUSCULAR HEMOGLOBIN: 23.92 pg
  MEAN CORPUSCULAR HEMOGLOBIN CONCENTRATION: 39.44 G/DL
  MEAN CORPUSCULAR VOLUME: 60.66 fL
  MONOCYTE: 3%
  NEUTROPHIL: 13.8%
  PLATELET COUNT: 1190.6 x10E3/uL
  ALANINE AMINOTRANSFERASE: 43 u/L
  ALBUMIN: 3.73 G/DL
  ALKALINE PHOSPHATASE: 393 u/L
  ASPARTATE AMINOTRANSFERASE: 62.33 u/L
  BLOOD UREA NITROGEN: 16.33 mg/dL
  CHLORIDE: 101.67 MEQ/L
  CHOLESTEROL: 65.5 mg/dL
  CREATINE PHOSPHOKINASE: 130.67 u/L
  CREATININE: 0.58 mg/dL
  GLUCOSE: 180.67 mg/dL
  PHOSPHORUS: 11.28 mg/dL
  POTASSIUM: 7.05 MEQ/L
  SODIUM: 148.17 MEQ/L
  TOTAL BILIRUBIN: 0.72 mg/dL
  TOTAL PROTEIN: 6.83 G/DL
[3]
  BASOPHIL: 0%
  EOSINOPHIL: 0%
  ERYTHROCYTE COUNT: 6.15 x10E6/uL
  HEMATOCRIT: 35.77%
  HEMOGLOBIN: 14.2 G/DL
  LEUKOCYTE COUNT: 14.83 x10E3/uL
  LYMPHOCYTE: 84%
  MEAN CORPUSCULAR HEMOGLOBIN: 23.1 pg
  MEAN CORPUSCULAR HEMOGLOBIN CONCENTRATION: 39.67 G/DL
  MEAN CORPUSCULAR VOLUME: 58.17 fL
  MONOCYTE: 2%
  NEUTROPHIL: 14%
  PLATELET COUNT: 1166 x10E3/uL
  ALANINE AMINOTRANSFERASE: 33 u/L
  ALBUMIN: 3.57 G/DL
  ALKALINE PHOSPHATASE: 285 u/L
  ASPARTATE AMINOTRANSFERASE: 56 u/L
  BLOOD UREA NITROGEN: 11.67 mg/dL
  CHLORIDE: 102 MEQ/L
  CHOLESTEROL: 73.33 mg/dL
  CREATINE PHOSPHOKINASE: 134 u/L
  CREATININE: 0.6 mg/dL
  GLUCOSE: 186 mg/dL
  PHOSPHORUS: 11.9 mg/dL
  POTASSIUM: 7 MEQ/L
  SODIUM: 149.67 MEQ/L
  TOTAL BILIRUBIN: 0.3 mg/dL
  TOTAL PROTEIN: 6.33 G/DL
[4]
  BASOPHIL: 0%
  EOSINOPHIL: 0.33%
  ERYTHROCYTE COUNT: 6.55 x10E6/uL
  HEMATOCRIT: 40.3%
  HEMOGLOBIN: 15.6 G/DL
  LEUKOCYTE COUNT: 12.63 x10E3/uL
  LYMPHOCYTE: 84%
  MEAN CORPUSCULAR HEMOGLOBIN: 23.9 pg
  MEAN CORPUSCULAR HEMOGLOBIN CONCENTRATION: 38.8 G/DL
  MEAN CORPUSCULAR VOLUME: 61.57 fL
  MONOCYTE: 1%
  NEUTROPHIL: 14.67%
  PLATELET COUNT: 1086.33 x10E3/uL
  ALANINE AMINOTRANSFERASE: 37.67 u/L
  ALBUMIN: 3.9 G/DL
  ALKALINE PHOSPHATASE: 378 u/L
  ASPARTATE AMINOTRANSFERASE: 55.67 u/L
  BLOOD UREA NITROGEN: 12.67 mg/dL
  CHLORIDE: 104 MEQ/L
  CHOLESTEROL: 66.33 mg/dL
  CREATINE PHOSPHOKINASE: 110.67 u/L
  CREATININE: 0.63 mg/dL
  GLUCOSE: 181.67 mg/dL
  PHOSPHORUS: 12.57 mg/dL
  POTASSIUM: 7.23 MEQ/L
  SODIUM: 151.33 MEQ/L
  TOTAL BILIRUBIN: 0.4 mg/dL
  TOTAL PROTEIN: 7.03 G/DL

## CCCCCCCCCCCCCCCC[n+]1ccccc1.[Br-]
[1]
  ABSOLUTE BASOPHIL: 0 CELLS/uL
  ABSOLUTE EOSINOPHIL: 58.83 CELLS/uL
  ABSOLUTE LYMPHOCYTE: 11823.5 CELLS/uL
  ABSOLUTE MONOCYTE: 169 CELLS/uL
  ABSOLUTE SEGMENTED NEUTROPHIL: 815.33 CELLS/uL
  BASOPHIL: 0%
  EOSINOPHIL: 0.5%
  ERYTHROCYTE COUNT: 5.52 x10E6/uL
  HEMATOCRIT: 35.77%
  HEMOGLOBIN: 14.28 G/DL
  LEUKOCYTE COUNT: 12.87 x10E3/uL
  LYMPHOCYTE: 91.67%
  MEAN CORPUSCULAR HEMOGLOBIN: 25.92 pg
  MEAN CORPUSCULAR VOLUME: 64.85 fL
  MONOCYTE: 1.33%
  NEUTROPHIL: 6.5%
  NUCLEATED RED BLOOD CELLS: 0 /100WBC
  PLATELET COUNT: 1246.17 x10E3/uL
  ALANINE AMINOTRANSFERASE: 66 u/L
  ALBUMIN: 4.25 G/DL
  ALKALINE PHOSPHATASE: 416 u/L
  ASPARTATE AMINOTRANSFERASE: 106.17 u/L
  BLOOD UREA NITROGEN: 12.67 mg/dL
  CARBON DIOXIDE: 31.83 mmol/L
  CHLORIDE: 102.5 MEQ/L
  CHOLESTEROL: 69 mg/dL
  CREATINE PHOSPHOKINASE: 601.83 u/L
  CREATININE: 0.18 mg/dL
  GLUCOSE: 154.5 mg/dL
  LACTATE DEHYDROGENASE: 301.83 u/L
  LIPASE: 11.17 u/L
  PHOSPHORUS: 12.08 mg/dL
  POTASSIUM: 6.12 MEQ/L
  SODIUM: 145.2 MEQ/L
  TOTAL BILIRUBIN: 0.17 mg/dL
  TOTAL PROTEIN: 6.1 G/DL
  URIC ACID: 1.57 mg/dL
[2]
  ABSOLUTE BASOPHIL: 0 CELLS/uL
  ABSOLUTE EOSINOPHIL: 19.33 CELLS/uL
  ABSOLUTE LYMPHOCYTE: 12577.83 CELLS/uL
  ABSOLUTE MONOCYTE: 106.33 CELLS/uL
  ABSOLUTE SEGMENTED NEUTROPHIL: 896.5 CELLS/uL
  BASOPHIL: 0%
  EOSINOPHIL: 0.17%
  ERYTHROCYTE COUNT: 5.84 x10E6/uL
  HEMATOCRIT: 36.88%
  HEMOGLOBIN: 14.48 G/DL
  LEUKOCYTE COUNT: 13.6 x10E3/uL
  LYMPHOCYTE: 92.17%
  MEAN CORPUSCULAR HEMOGLOBIN: 24.85 pg
  MEAN CORPUSCULAR VOLUME: 63.23 fL
  MONOCYTE: 0.83%
  NEUTROPHIL: 6.83%
  NUCLEATED RED BLOOD CELLS: 0 /100WBC
  PLATELET COUNT: 1223.5 x10E3/uL
  ALANINE AMINOTRANSFERASE: 55.33 u/L
  ALBUMIN: 4.08 G/DL
  ALKALINE PHOSPHATASE: 355.5 u/L
  ASPARTATE AMINOTRANSFERASE: 87.67 u/L
  BLOOD UREA NITROGEN: 15.33 mg/dL
  CARBON DIOXIDE: 33.83 mmol/L
  CHLORIDE: 99.67 MEQ/L
  CHOLESTEROL: 72.17 mg/dL
  CREATINE PHOSPHOKINASE: 268.33 u/L
  CREATININE: 0.15 mg/dL
  GLUCOSE: 152.5 mg/dL
  LACTATE DEHYDROGENASE: 212.67 u/L
  LIPASE: 10.83 u/L
  PHOSPHORUS: 11.65 mg/dL
  POTASSIUM: 6.73 MEQ/L
  SODIUM: 142.43 MEQ/L
  TOTAL BILIRUBIN: 0.23 mg/dL
  TOTAL PROTEIN: 6.07 G/DL
  URIC ACID: 1.7 mg/dL
